Test system: AMPK
Test: Western blot for phosphorylated AMPK in L6 myotube lysates
Assay type: cell-based
Conditions: L6 myotubes, 60 minutes; 2, 10 or 20 μmol/l 190-243 peptide; FIG. 8c
Procedure: Prior to stimulation or treatment cultured myoblast cells were serum starved for 4 hours in serum-free α-MEM and all subsequent treatments, including insulin or phenformin as positive controls (Sigma), were performed in serum free a-MEM. After treatments, cells were washed with ice cold PBS buffer and lysed on ice using a non-denaturing lysis buffer (1% Triton X-100, 50 mmol/l Tris, 150 mmol/l NaCl, pH 8.0) containing protease and phosphatase inhibitors (Roche). Lysates were centrifuged at 16,000×g, 20 minutes at 4° C. and BCA protein assay (Pierce) was performed on supernatants. Equal protein amounts were separated by SDS-PAGE and transferred to nitrocellulose membranes. pAMPK, AMPK, pACC, pAkt, Akt and tubulin were used for immunodetection with IRDye 800CW and 680RD secondary antibodies (LI-COR). Blots were imaged using the Odyssey Fc system and quantified using Image studio v2.0 software.
To dissect the effect of discoidal rHDL on a non-insulin dependent signaling pathway, we conducted western blotting using lysates from L6 myotubes incubated with rHDL. […] Phenformin was used as a positive control, inducing a 1.98±0.33-fold (p=≦0.05) and 2.7±0.74-fold (p=≦0.05) elevation of phosphorylated AMPK and ACC, respectively, at a concentration of 0.4 mmol/l. […] Representative immunoblots of those quantified for FIGS. 3a, c and f are given in FIGS. 3b, d and e, respectively. […]

## 190-243 polypeptide fragment: polypeptide fragment consisting of amino acids 190-243 of the full-length human apoA-I protein, C-terminal domain, 54-mer, recombinant (AEYHAKATEHLSTLSEKAKPALEDLRQGLLPVLESFKVSFLSALEEYTKKLNTQ; listed as Homo Sapiens)
  levels of phosphorylated AMPK (in words): increased levels of phosphorylated AMPK
